Measured values as given in patent US10010560B2, “Small molecule HSP70 inhibitors” (THE TRUSTEES OF THE UNIVERSITY OF PENNSYLVANIA, priority 2014, dated 2018).
Where two headings read alike, the source gives them in different places.

What was measured:
HSP70 = target: T1, HSP70 (Homo sapiens, UniProt P0DMV8, E110D); experiment: ITC of HSP70 preincubated with competing compound; type: binding; conditions: ITC competition
T1 construct: His6 (N); made in house; host or cells: E. coli BL21 Star (DE3)
Excerpt: FIGS. 3A-3L illustrate that PET-16 binds directly to ADP-bound HSP70 and DnaK. Specifically, FIGS. 3A-3H are isothermal calorimetric titration (ITC) assays of the indicated compounds (NRLLLTG—SEQ ID NO: 7, PES or PET-16) with purified HSP70-ADP, DnaK-ADP or HSP70-ATP proteins. The data are representative of three independent experiments. FIGS. 3I and 3J are ITC assays for the interaction between HSP70 (aa 386-616 of SEQ ID NO: 2) protein and PET-16 (I) or TPP (J). Binding constants (Kd values) are shown (average and s.d. from three independent experiments). PET-16 also binds directly to the purified, full-length, nucleotide-free HSP70 protein, with a reported dissociation constant of 5.2+/−0.1 micromolar, which is the average and standard deviation from two independent experiments (data not shown). FIG. 3K is ITC assay of HSP70 protein preincubated with ADP and PES for 1 h. The mixture was titrated into the sample cell containing PET-16. The data are representative of three independent ITC experiments. FIG. 3L are western blots of human lung carcinoma (H1299) cells that were pretreated with DMSO or excess (8×) PET-16 for 1 h prior to the addition of 20 μM B-PES for 5 h and examined for the expression of HSP70 or BCL-xL. B-PES-containing complexes were captured by Avidin resins and immunoblotted either with anti-HSP70 or anti-BCL-xL antibody. […]

ATP-HSP70 (WT) = target: T2, ATP-HSP70 (WT) (Homo sapiens, UniProt P0DMV8, E110D); experiment: ITC binding to ATP-bound full-length HSP70
T2 construct: Full-length recombinant proteins of HSP70 (aa 1-641) as well as DnaK (aa 1-638); His6 (N); made in house; host or cells: E. coli BL21 Star (DE3)
Excerpt: The human stress-inducible HSP70 (residues 1-641 or 386-616 of SEQ ID NO: 2) and E. coli DnaK (residues 1-638, 389-607, or 393-507 of SEQ ID NO: 4) were cloned into the pET25 vector (EMD Millipore Chemicals, Inc., Billerica, Mass., USA) between the NdeI and XhoI restriction sites. The full-length HSP70 and DnaK mutants were constructed by PCR-based site-directed mutagenesis using the QuikChange™ Site-Directed Mutagenesis Kit (Agilent Technologies, Inc., Santa Clara, Calif., USA). All plasmid inserts were verified by DNA sequencing. All HSP70 and DnaK variants were produced with a N-terminal His6-tag in the E. coli BL21 Star (DE3) strain (Invitrogen catalog number C6010-03). The resulting strains were grown at 37° C. in LB medium containing 50 μg/mL of carbenicillin (Sigma-Aldrich Co., St. Louis, Mo., USA). At an OD600 about 0.3 to about 0.5, protein expression was induced with 0.5 mM isopropyl-β-D-thiogalactopyranoside (IPTG), and cells were subsequently grown at 25° C. for about 16 h. Cells were collected by centrifugation and resuspended in the Bugbuster® Master Mix (EMD Millipore Chemicals catalog number 71456-4), supplemented with protease inhibitors, 1 mM diethiothreitol (DTT) and 20 mM imidazole. The His6-tagged fusion proteins were isolated on Ni^2+-chelating resins (Ni-NTA Superflow, Qiagen catalog number 30410) by standard procedures. When necessary, size-exclusion chromatography on a Superdex® 200 or a Superose® 6 10/300 GL columns (GE Healthcare) analytical column pre-equilibrated with 1× Dulbecco's Phosphate Buffered Saline (DPBS—Invitrogen 14190-136), 1 mM Tris-HCl (pH 7.4) or 10 mM Tris-HCl (pH 7) was used as the final purification step. The purified DnaK proteins were dialyzed thoroughly against 1× DPBS with 5 mM DTT at 4° C., for crystallization trials involving the small molecule inhibitor PET-16. For isothermal titration calorimetry studies, all HSP70 and DnaK variants were dialyzed extensively against the buffers as noted below under the section entitled “Isothermal Titration calorimetry Studies”. […]

ADP-DnaK (WT, aa 1-638) = target: T3, ADP-DnaK (WT, aa 1-638) (Escherichia coli, UniProt P0A6Y8); experiment: ITC binding to ADP-bound full-length DnaK; parameters: species or system E. coli
T3 construct: Full-length recombinant proteins of HSP70 (aa 1-641) as well as DnaK (aa 1-638); His6 (N); made in house; host or cells: E. coli BL21 Star (DE3)
Protocol: For isothermal titration calorimetry studies, all HSP70 and DnaK variants were dialyzed extensively against the buffers as noted below under the section entitled “Isothermal Titration calorimetry Studies”. The dialyzed proteins were subsequently microcentrifugated at 15,000×g for 5 min at 4° C. and aliquots of the soluble proteins were stored at −80° C.
All ITC experiments were performed using a MicroCal VP-ITC isothermal titration calorimeter (MicroCal). Both full-length HSP70 and DnaK proteins and DnaK (aa 393-507) proteins were prepared in 1 mM Tris-HCl (pH 7.4) buffer containing 3% dimethylsulfoxide (DMSO). The HSP70 (aa 386-616) protein was prepared in buffer containing 3% DMSO and 10 mM Tris-HCl, pH 7. The syringe was loaded with purified protein in either 1 mM Tris-HCl (pH 7.4) buffer containing 3% DMSO or 10 mM Tris-HCl (pH 7) buffer containing 3% DMSO. […] All solutions were degassed for 5 min.
The titrations involving the full-length purified proteins were performed at 25° C. with injection volumes of 12 μL and a spacing of 300 s. The titrations involving the purified HSP70 (aa 386-616) and DnaK (aa 393-507) were performed at 42° C. with injection volumes of 12 μL and a spacing of 300 s. Heat from the pre-injection was not used during fitting. […]

ATP-bound DnaK = target: T4, ATP-bound DnaK (Escherichia coli, UniProt P0A6Y8); experiment: ITC binding to ATP-bound DnaK; parameters: species or system E. coli; conditions: in words
T4 construct: Full-length recombinant proteins of HSP70 (aa 1-641) as well as DnaK (aa 1-638); His6 (N); made in house; host or cells: E. coli BL21 Star (DE3)
Excerpt: The human stress-inducible HSP70 (residues 1-641 or 386-616 of SEQ ID NO: 2) and E. coli DnaK (residues 1-638, 389-607, or 393-507 of SEQ ID NO: 4) were cloned into the pET25 vector (EMD Millipore Chemicals, Inc., Billerica, Mass., USA) between the NdeI and XhoI restriction sites. The full-length HSP70 and DnaK mutants were constructed by PCR-based site-directed mutagenesis using the QuikChange™ Site-Directed Mutagenesis Kit (Agilent Technologies, Inc., Santa Clara, Calif., USA). All plasmid inserts were verified by DNA sequencing. All HSP70 and DnaK variants were produced with a N-terminal His6-tag in the E. coli BL21 Star (DE3) strain (Invitrogen catalog number C6010-03). The resulting strains were grown at 37° C. in LB medium containing 50 μg/mL of carbenicillin (Sigma-Aldrich Co., St. Louis, Mo., USA). At an OD600 about 0.3 to about 0.5, protein expression was induced with 0.5 mM isopropyl-β-D-thiogalactopyranoside (IPTG), and cells were subsequently grown at 25° C. for about 16 h. Cells were collected by centrifugation and resuspended in the Bugbuster® Master Mix (EMD Millipore Chemicals catalog number 71456-4), supplemented with protease inhibitors, 1 mM diethiothreitol (DTT) and 20 mM imidazole. The His6-tagged fusion proteins were isolated on Ni^2+-chelating resins (Ni-NTA Superflow, Qiagen catalog number 30410) by standard procedures. […]

T2 sequence (P0DMV8 whole entry E110D, the tested form may be a part): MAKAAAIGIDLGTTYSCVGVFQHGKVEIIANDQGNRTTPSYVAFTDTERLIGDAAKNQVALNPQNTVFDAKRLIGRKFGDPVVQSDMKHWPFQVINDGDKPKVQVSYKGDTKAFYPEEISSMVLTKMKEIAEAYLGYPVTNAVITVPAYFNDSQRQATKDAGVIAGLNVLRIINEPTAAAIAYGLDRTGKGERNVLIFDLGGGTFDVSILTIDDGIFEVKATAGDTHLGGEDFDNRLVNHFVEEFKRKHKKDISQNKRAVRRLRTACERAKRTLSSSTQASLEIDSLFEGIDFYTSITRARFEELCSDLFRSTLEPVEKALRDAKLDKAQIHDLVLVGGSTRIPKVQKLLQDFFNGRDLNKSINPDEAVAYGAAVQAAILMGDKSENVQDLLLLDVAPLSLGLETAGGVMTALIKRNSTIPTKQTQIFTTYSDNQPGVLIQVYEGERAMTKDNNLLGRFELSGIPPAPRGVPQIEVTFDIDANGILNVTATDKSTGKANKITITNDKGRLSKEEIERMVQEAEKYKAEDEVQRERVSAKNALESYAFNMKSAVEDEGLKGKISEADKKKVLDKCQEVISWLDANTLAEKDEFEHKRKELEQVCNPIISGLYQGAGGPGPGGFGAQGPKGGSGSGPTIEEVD
T1 sequence (P0DMV8 whole entry E110D): as the sequence (P0DMV8 whole entry E110D, the tested form may be a part) above
T3 sequence (P0A6Y8 whole entry, the tested form may be a part): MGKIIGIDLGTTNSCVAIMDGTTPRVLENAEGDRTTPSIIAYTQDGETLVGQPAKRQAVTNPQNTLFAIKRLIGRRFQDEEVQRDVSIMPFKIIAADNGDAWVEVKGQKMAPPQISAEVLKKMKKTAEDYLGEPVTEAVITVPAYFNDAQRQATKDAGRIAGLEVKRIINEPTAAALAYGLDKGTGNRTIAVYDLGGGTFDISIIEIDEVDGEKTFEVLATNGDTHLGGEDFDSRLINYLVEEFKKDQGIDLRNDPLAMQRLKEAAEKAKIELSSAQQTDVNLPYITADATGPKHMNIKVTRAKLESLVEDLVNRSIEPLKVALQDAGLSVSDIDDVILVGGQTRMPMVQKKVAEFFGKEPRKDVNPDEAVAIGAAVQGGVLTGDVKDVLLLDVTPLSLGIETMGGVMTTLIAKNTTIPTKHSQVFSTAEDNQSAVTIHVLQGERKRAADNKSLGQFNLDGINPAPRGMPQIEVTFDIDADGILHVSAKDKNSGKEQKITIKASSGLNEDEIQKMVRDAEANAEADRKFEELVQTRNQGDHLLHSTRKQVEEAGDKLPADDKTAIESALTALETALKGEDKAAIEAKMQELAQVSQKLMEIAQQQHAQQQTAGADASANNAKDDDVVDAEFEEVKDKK
T4 sequence (P0A6Y8 whole entry, the tested form may be a part): as above

Compound	binding to HSP70 after pre-incubation with the other compound (PES / PET-16) (HSP70)	interaction with ATP-bound HSP70 (ATP-HSP70 (WT); in words)	Kd (ADP-DnaK (WT, aa 1-638); ITC, wild-type full-length ADP-bound DnaK, read-out: Kd) [µM]	interaction with ATP-bound DnaK (ATP-bound DnaK)	Kd (ATP-HSP70 (WT); wild-type full-length ATP-bound HSP70) [µM]	Kd (ADP-DnaK (WT, aa 1-638)) [µM]
NS(=O)(=O)C#Cc1ccccc1 [PES, 2-Phenylethynesulfonamide, reference compound]	impaired	notably reduced	~6.8	notably reduced	–	–
C(#C[P+](c1ccccc1)(c1ccccc1)c1ccccc1)c1ccccc1.[Br-] [PET-16, triphenyl(phenylethynyl)phosphonium bromide]	markedly reduced	–	–	notably reduced	130 ± 8.3	~6
